Results published in US11667552B2, “Silver ion biocide delivery system” (priority 2018, dated 2023).

Key:
[1] = Silver ion concentration in effluent of water passed through a packed bed of silver material
From the text: In this method, water is passed through a bed of silver chloride which releases silver chloride into the water stream as it flows through the bed.

[2] = Excerpt: Another method of releasing silver ion in a water stream is the use of metal oxides, carbonates, and salts containing silver. These metal salts may include, but are not limited to, metal oxides, metal halides, or metal salts containing silver, and/or metallic silver, or a combination, mixture or alloy of metals containing silver.
Certain embodiments can be designed with internal design elements to compensate for decreasing volume of material as it is used during operation, without the need to use springs and associated hardware.

| Max Theoretical Conc (ug salt/L) [2] | theoretical solubility limit [2] | silver ion in effluent from the AgCl bed ([1]; typical, depends on material morphology, temperature, pH) | Structure (SMILES) | Effluent Conc. Range Packed Bed (ug Ag^+/l) [1] [µg/L] |
| --- | --- | --- | --- | --- |
| – | – | – | [Br][Ag] [Silver Bromide] | 5 to 100 |
| 1,900 ug/l | about 3 mg/l | about 100 μg/l | [Cl][Ag] [Silver Chloride] | 200 to 800 |
